Values quoted from earlier work, collected in patent US20260027218A1, “STAR-SHAPED GRAFT COPOLYMERS” (POLYPEPTIDE THERAPEUTIC SOLUTIONS, S.L., priority 2022, published 2026).

CCN(CC)c1ccc2nc3c4ccccc4c(=O)cc-3oc2c1 [Nile Red]
log P: 2.98
